# Experimental data from patent EP2987533B1, “7-substituted piperazin-1-yl fluoroquinolone compounds, their use in the treatment of cancer, pharmaceutical compositions and a method for preparation” (priority 2014, dated 2016).
# Legend:
# Format in all cases: cell-based
# [1] = system: HS 578T; test: NCI one-dose SRB growth assay; conditions: Homo sapiens; HS 578T (Breast Cancer), 10^-5 M, 48 h; read-out: % Growth Inhibition (GI %)
# [2] = system: SN12C; test: NCI five-dose SRB growth assay; conditions: Homo sapiens; SN12C (Renal Cancer), 48 h
# [3] = system: MCF7; test: NCI five-dose SRB growth assay; conditions: Homo sapiens; MCF7 (Breast Cancer), 48 h
# [4] = system: TK-10; test: NCI five-dose SRB growth assay; conditions: Homo sapiens; TK-10 (Renal Cancer), 48 h
# [5] = system: M14; test: NCI five-dose SRB growth assay; conditions: Homo sapiens; M14 (Melanoma), 48 h
# [6] = system: HCT-15; test: NCI five-dose SRB growth assay; conditions: Homo sapiens; HCT-15 (Colon Cancer), 48 h
# [7] = system: SF-539; test: NCI five-dose SRB growth assay; conditions: Homo sapiens; SF-539 (CNS Cancer), 48 h
# [8] = system: K-562; test: NCI five-dose SRB growth assay; conditions: Homo sapiens, K562; K-562 (Leukemia), 48 h
Compound,inhibition at 10 µM [1] [%],GI50 [2] [µM],GI50 [3] [µM],GI50 [4] [µM],GI50 [5] [µM],GI50 [6] [µM],GI50 [7] [µM],GI50 [8] [µM]
"O=c1[nH]cc(F)c(=O)[nH]1 [Compound 5-FU, 5-fluorouracil, reference compound]",> 100,,,,,,,
CCn1cc(C(=O)O)c(=O)c2cc(F)c(N3CCN(S(=O)(=O)c4ccc(Cl)cc4Cl)CC3)cc21 [Compound 2a],,2.77,2.95,4.02,3.24,2.82,1.92,4
Cc1cc(C)c(S(=O)(=O)N2CCN(c3cc4c(cc3F)c(=O)c(C(=O)O)cn4C3CC3)CC2)c(C)c1 [Compound 6b],,2.61,2.59,4.57,4.69,2.55,3.14,
O=C(O)c1cn(C2CC2)c2cc(N3CCN(S(=O)(=O)c4ccc(Cl)c(Cl)c4)CC3)c(F)cc2c1=O [Compound 3b],,2.97,2.84,4.31,4.06,3.3,3.39,3.92
CCn1cc(C(=O)O)c(=O)c2cc(F)c(N3CCN(S(=O)(=O)c4cccc5ccccc45)CC3)cc21 [Compound 7a],,2.59,2.72,7.6,4.37,3.15,2.43,3.93
CCn1cc(C(=O)O)c(=O)c2cc(F)c(N3CCN(S(=O)(=O)c4ccc(Cl)cc4)CC3)cc21 [Compound 1a],81.1,2.92,2.97,3.73,2.85,3.62,4.12,2.91
